| Compound | melting point [°C] |
| --- | --- |
| CSc1cccc(N2CCN(CC[C@H]3CC[C@H](NC(=O)CCC#N)CC3)CC2)c1 [Example 269, 3-Cyano-N-(4-{2-[4-(3-methylsulfanylphenyl)piperazin-1-yl]ethyl}cyclohexyl)-propanamide] | 98 |
| N#CCC(=O)N[C@H]1CC[C@H](CCN2CCN(c3cccc(-c4ccccc4)c3)CC2)CC1 [Example 276, N-{4-[2-(4-Biphenyl-3-yl-piperazin-1-yl)ethyl]cyclohexyl}-2-cyanoacetamide] | 157 |
| Cc1ccc(F)cc1N1CCN(CC[C@H]2CC[C@H](NC(=O)CCC#N)CC2)CC1 [Example 278, 3-Cyano-N-(4-{2-[4-(5-fluoro-2-methylphenyl)piperazin-1-yl]ethyl}cyclohexyl)propanamide] | 146 |
| N#CCCCC(=O)N[C@H]1CC[C@H](CCN2CCN(c3ccc(F)cc3)CC2)CC1 [Example 283, 4-Cyano-N-(4-{2-[4-(4-fluorophenyl)piperazin-1-yl]ethyl}cyclohexyl)butanamide] | 154 |
| O=C(CC(F)(F)F)N[C@H]1CC[C@H](CCN2CCN(c3ccc(F)cc3)CC2)CC1 [Example 284, 3,3,3-Trifluoro-N-(4-{2-[4-(4-fluorophenyl)piperazin-1-yl]ethyl}cyclohexyl)propanamide] | 200 |
| CCc1ccccc1N1CCN(CC[C@H]2CC[C@H](NC(=O)CCCC#N)CC2)CC1 [Example 286, 4-Cyano-N-(4-{2-[4-(2-ethylphenyl)piperazin-1-yl]ethyl}cyclohexyl)butanamide] | 124 |
| O=C(C[C@H]1CC[C@H](CCN2CCN(c3cccc(C(F)(F)F)c3)CC2)CC1)N1CCCC1 [Example 294, 1-Pyrrolidin-1-yl-2-(4-{2-[4-(3-trifluoromethylphenyl)piperazin-10yl]ethyl}cyclohexyl)ethanone] | 131 |
| CNC(=O)C=C1CCC(CCN2CCN(c3ccccc3F)CC2)CC1 (stereo not shown) [Example 299, 2-(4-{2-[4-(2-Fluorophenyl)piperazin-1-yl]ethyl}cyclohexylidene)-N-methylacetamide] | 135 |
| CNC(=O)C[C@H]1CC[C@H](CCN2CCN(c3ccccc3F)CC2)CC1 [Example 300, 2-(4-{2-[4-(2-Fluorophenyl)-piperazin-1-yl]ethyl}cyclohexyl)-N-methylacetamide] | 165 to 166 |
| O=C(C=C1CCC(CCN2CCN(c3ccccc3F)CC2)CC1)N1CCCC1 (stereo not shown) [Example 301, 2-(4-{2-[4-(2-Fluorophenyl)-piperazin-1-yl]ethyl}cyclohexylidene)-1-pyrrolidin-1-ylethanone] | 109 to 110 |
| O=C(C[C@H]1CC[C@H](CCN2CCN(c3ccccc3F)CC2)CC1)N1CCCC1 [Example 302, 2-(4-{2-[4-(2-Fluorophenyl)-piperazin-1-yl]ethyl}cyclohexyl)-1-pyrrolidin-1-ylethanone] | 92 to 93 |
| O=C(C=C1CCC(CCN2CCN(c3ccccc3F)CC2)CC1)NCC(F)(F)F (stereo not shown) [Example 303, 2-(4-{2-[4-(2-Fluorophenyl)-piperazin-1-yl]ethyl}cyclo-hexylidene)-N-(2,2,2-trifluoroethyl)acetamide] | 125 |
| O=C(C[C@H]1CC[C@H](CCN2CCN(c3ccccc3F)CC2)CC1)NCC(F)(F)F [Example 304, 2-(4-{2-[4-(2-Fluorophenyl)piperazin-1-yl]ethyl}cyclohexyl)-N-(2,2,2-trifluoroethyl)acetamide] | 158 to 159 |
| CCCNC(=O)C[C@H]1CC[C@H](CCN2CCN(c3ccccc3F)CC2)CC1 [Example 306, 2-(4-{2-[4-(2-Fluorophenyl)-piperazin-1-yl]ethyl}cyclohexyl)-N-propylacetamide] | 150 |
| CC(=O)CN1CCC(CCN2CCN(c3ccc(C)cc3)CC2)CC1 [Example 310, 1-{4-[2-(4-p-Tolylpiperazin-1-yl)ethyl]piperidin-1-yl}propan-2-one] | 92 |
| CC(=O)CN1CCC(CCN2CCN(c3cc(Cl)cc(Cl)c3)CC2)CC1 [Example 311, 1-(4-{2-[4-(3,5-Dichlorophenyl)-piperazin-1-yl]ethyl}piperidin-1-yl)propan-2-one] | 126 |
| CCCc1cccc(N2CCN(CC[C@H]3CC[C@H](NC(=O)CCCC#N)CC3)CC2)c1 [Example 312, 4-Cyano-N-(4-{2-[4-(3-propylphenyl)piperazin-1-yl]ethyl}cyclohexyl)butanamide] | 142 |

More lines, now with the values ahead:

| melting point [°C] | Compound |
| --- | --- |
| 117 | COCc1cccc(N2CCN(CC[C@H]3CC[C@H](NC(=O)CC#N)CC3)CC2)c1 [Example 270, 2-Cyano-N-(4-{2-[4-(3-methoxymethylphenyl)piperazin-1-yl]ethyl}cyclohexyl)acetamide] |
| 132 | CCCc1cccc(N2CCN(CC[C@H]3CC[C@H](NC(=O)CC#N)CC3)CC2)c1 [Example 271, 2-Cyano-N-(4-{2-[4-(3-propylphenyl)piperazin-1-yl]ethyl}cyclohexyl)acetamide] |
| 216 | N#CCC(=O)N[C@H]1CC[C@H](CCN2CCN(c3ccc(Cl)c(Cl)c3)CC2)CC1 [Example 272, 2-Cyano-N-(4-{2-[4-(3,4-dichlorophenyl)piperazin-1-yl]ethyl}cyclohexyl)acetamide] |
| 240 | N#CCC(=O)N[C@H]1CC[C@H](CCN2CCN(c3ccc(C(F)(F)F)cc3)CC2)CC1 [Example 274, 2-Cyano-N-(4-{2-[4-(4-trifluoromethylphenyl)piperazin-1-yl]ethyl}cyclohexyl)acetamide] |
| 247 | N#CCC(=O)N[C@H]1CC[C@H](CCN2CCN(c3ccc(Cl)cc3)CC2)CC1 [Example 275, N-(4-{2-[4-(4-Chlorophenyl)piperazin-1-yl]ethyl}cyclohexyl)-2-cyanoacetamide] |
| 181 | N#CCC(=O)N[C@H]1CC[C@H](CCN2CCN(c3ccc(F)c(C(F)(F)F)c3)CC2)CC1 [Example 277, 2-Cyano-N-(4-{2-[4-(4-fluoro-3-trifluoromethylphenyl)piperazin-1-yl]ethyl}cyclohexyl)acetamide] |
| 168 | N#CCC(=O)N[C@H]1CC[C@H](CCN2CCN(c3cccc(Br)c3)CC2)CC1 [Example 280, N-(4-{2-[4-(3-Bromophenyl)piperazin-1-yl]ethyl}cyclohexyl)-2-cyanoacetamide] |
| 150 | CC(F)(F)c1cccc(N2CCN(CC[C@H]3CC[C@H](NC(=O)CC#N)CC3)CC2)c1 [Example 281, 2-Cyano-N-[4-(2-{4-[3-(1,1-difluoroethyl)phenyl]piperazin-1-yl}ethyl)cyclohexyl]acetamide trans/cis 90/10] |
| 150 | CC(C)(C#N)C(=O)N[C@H]1CC[C@H](CCN2CCN(c3cccc(C(F)(F)F)c3)CC2)CC1 [Example 282, 2-Cyano-2,2-dimethyl-N-(4-{2-[4-(3-trifluoromethylphenyl)-piperazin-1-yl]ethyl}cyclohexyl)-acetamide] |
| 210 | CCc1ccc(N2CCN(CC[C@H]3CC[C@H](NC(=O)CC#N)CC3)CC2)cc1 [Example 285, 2-Cyano-N-(4-{2-[4-(4-ethylphenyl)piperazin-1-yl]ethyl}cyclohexyl)acetamide] |
| 174 | Cc1c(F)cccc1N1CCN(CC[C@H]2CC[C@H](NC(=O)CC#N)CC2)CC1 [Example 313, 2-Cyano-N-(4-{2-[4-(3-fluoro-2-methylphenyl)piperazin-1-yl]ethyl}cyclohexyl)acetamide] |

Reference: patent publication US8802678B2, “Carbonylated (aza) cyclohexanes as dopamine D3 receptor ligands” (Bioprojet, priority 2006, dated 2014)
